Activity calls are given as the source filed them. No cut-off for these calls is given here.
Assays:
MCF7 [1] = experiment: Cytotoxicity against human MCF7 cells assessed as growth inhibition after 72 hrs by MTS/PMS assay; assay type: functional, cell-based; conditions: MCF7, 72 h
[2] = target: T1, Heat shock protein HSP90 (Homo sapiens) (UniProt P07900+P08238); experiment: Inhibition of HSP90 in human MCF7 cells assessed as pAkt degradation after 24 hrs by Western blot analysis; assay type: cell-based
[3] = target: T1, Heat shock protein HSP90 (Homo sapiens); experiment: Inhibition of HSP90 in human MCF7 cells assessed as Her2 degradation after 24 hrs by Western blot analysis; assay type: cell-based
[4] = target: T1, Heat shock protein HSP90 (Homo sapiens); experiment: Inhibition of HSP90 in human MCF7 cells assessed as Cdk6 degradation after 24 hrs by Western blot analysis; assay type: cell-based
[5] = target: T1, Heat shock protein HSP90 (Homo sapiens); experiment: Inhibition of HSP90 in human MCF7 cells assessed as Raf degradation after 24 hrs by Western blot analysis; assay type: cell-based
MCF7 [6] = experiment: Change in Cdc37 expression in human MCF7 cells at 0.01 to 10 uM after 24 hrs by Western blot analysis; assay type: functional, cell-based
MCF7 [7] = experiment: Change in p23 expression in human MCF7 cells at 0.01 to 10 uM after 24 hrs by Western blot analysis; assay type: functional, cell-based
[8] = target: T1, Heat shock protein HSP90 (Homo sapiens); experiment: Inhibition of HSP90 in human MCF7 cells assessed as disruption of interaction with Cdc37 at 0.5 times to 5 times IC50 after 24 hrs by co-immunoprecipitation assay; assay type: cell-based
[9] = target: T1, Heat shock protein HSP90 (Homo sapiens); experiment: Inhibition of HSP90 in human MCF7 cells assessed as disruption of interaction with p23 at 0.5 times to 5 times IC50 after 24 hrs by co-immunoprecipitation assay; assay type: cell-based
[10] = target: T1, Heat shock protein HSP90 (Homo sapiens); experiment: Inhibition of HSP90 in human MCF7 cells assessed as induction of heat shock response-mediated HSP27 production at 5 times to 10 times IC50 after 24 hrs by Western blot analysis relative to vehicle-treated control; assay type: cell-based
[11] = target: T1, Heat shock protein HSP90 (Homo sapiens); experiment: Inhibition of HSP90 in human MCF7 cells assessed as pAkt degradation at 0.5 times to 5 times IC50 after 24 hrs by Western blot analysis; assay type: cell-based
[12] = target: T1, Heat shock protein HSP90 (Homo sapiens); experiment: Inhibition of HSP90 in human MCF7 cells assessed as Her2 degradation at 0.5 times to 5 times IC50 after 24 hrs by Western blot analysis; assay type: cell-based
[13] = target: T1, Heat shock protein HSP90 (Homo sapiens); experiment: Inhibition of HSP90 in human MCF7 cells assessed as Cdk6 degradation at 0.5 times to 5 times IC50 after 24 hrs by Western blot analysis; assay type: cell-based
[14] = target: T1, Heat shock protein HSP90 (Homo sapiens); experiment: Inhibition of HSP90 in human MCF7 cells assessed as Raf degradation at 0.5 times to 5 times IC50 after 24 hrs by Western blot analysis; assay type: cell-based
[15] = target: T1, Heat shock protein HSP90 (Homo sapiens); experiment: Inhibition of HSP90 in human MCF7 cells assessed as induction of heat shock response-mediated HSP90 production at 0.5 times to 5 times IC50 after 24 hrs by Western blot analysis; assay type: cell-based
[16] = target: T1, Heat shock protein HSP90 (Homo sapiens); experiment: Inhibition of HSP90 in human MCF7 cells assessed as induction of heat shock response-mediated HSP70 production at 0.5 times to 5 times IC50 after 24 hrs by Western blot analysis; assay type: cell-based
[17] = target: T1, Heat shock protein HSP90 (Homo sapiens); experiment: Inhibition of HSP90 in human MCF7 cells assessed as induction of heat shock response-mediated HSP27 production at 0.5 times to 5 times IC50 after 24 hrs by Western blot analysis; assay type: cell-based
MCF7 [18] = experiment: Change in Cdc37 expression in human MCF7 cells at 5 times IC50 after 24 hrs by Western blot analysis; assay type: functional, cell-based
MCF7 [19] = experiment: Change in p23 expression in human MCF7 cells at 5 times IC50 after 24 hrs by Western blot analysis; assay type: functional, cell-based
[20] = target: T2, Prostaglandin E synthase 3 (Homo sapiens) (UniProt Q15185); experiment: Binding affinity to p23 in human MCF7 cells assessed as inhibition of interaction with HSP90 at 5 times IC50 after 24 hrs by co-immunoprecipitation assay; assay type: cell-based
T2 sequence (whole entry): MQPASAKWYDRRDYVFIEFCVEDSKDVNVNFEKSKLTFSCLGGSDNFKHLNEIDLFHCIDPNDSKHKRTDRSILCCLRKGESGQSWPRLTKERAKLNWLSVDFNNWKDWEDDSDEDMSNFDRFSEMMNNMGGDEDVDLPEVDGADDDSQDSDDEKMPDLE

Row | SMILES | IC50 (MCF7 [1]; read-out: IC50) | inhibition [10] | inhibition [11] | inhibition [12] | inhibition [13] | inhibition [14] | inhibition [15] | inhibition [16] | inhibition [17] | Activity (MCF7 [18]) | Activity (MCF7 [19]) | further results
1 | CC(C)(O)/C=C/C(=O)[C@](C)(O)[C@H]1[C@H](O)C[C@@]2(C)[C@@H]3CC=C4[C@@H](CC(=O)[C@H](O)C4(C)C)[C@]3(C)C(=O)C[C@]12C | 718 nM | Active | – | – | – | – | – | – | – | – | – | inhibition [2]: Dose-dependent effect; inhibition [3]: Dose-dependent effect; inhibition [4]: Dose-dependent effect; inhibition [5]: Dose-dependent effect; Activity (MCF7 [6]): inactive; Activity (MCF7 [7]): inactive; inhibition [8]: inactive; inhibition [9]: inactive
2 | CC(C)(O)CCC(=O)[C@@](C)(O)[C@H]1[C@H](O)C[C@@]2(C)[C@@H]3CC=C4[C@@H](C[C@H](O)C(=O)C4(C)C)[C@]3(C)C(=O)C[C@]12C | 5130 nM | – | inactive | inactive | inactive | inactive | inactive | inactive | inactive | – | – | –
3 | CC(=O)OC(C)(C)CCC(=O)[C@](C)(O)[C@H]1[C@H](O)C[C@@]2(C)[C@@H]3CC=C4[C@@H](C[C@H](O)C(=O)C4(C)C)[C@]3(C)C(=O)C[C@]12C [23,24-DIHYDROCUCURBITACIN B] | 46300 nM | – | inactive | inactive | inactive | inactive | inactive | inactive | inactive | – | – | –
4 | CC1=C(O)C(=O)C=C2C1=CC=C1[C@@]2(C)CC[C@@]2(C)[C@@H]3C[C@](C)(C(=O)O)CC[C@]3(C)CC[C@]12C [CELASTROL] | 153 nM | – | – | – | – | – | – | – | – | Active | Active | –
5 | CC(=O)OC(C)(C)/C=C/C(=O)[C@](C)(O)[C@H]1[C@H](O)C[C@@]2(C)[C@@H]3CC=C4[C@H](C[C@H](O)C(=O)C4(C)C)[C@]3(C)C(=O)C[C@]12C [CUCURBITACIN B] | 41.3 nM | – | inactive | inactive | inactive | inactive | inactive | inactive | inactive | – | – | –
6 | CC(C)(O)/C=C/C(=O)[C@](C)(O)[C@H]1[C@H](O)C[C@@]2(C)[C@@H]3CC=C4[C@@H](C[C@H](O)C(=O)C4(C)C)[C@]3(C)C(=O)C[C@]12C [CUCURBITACIN D] | 598 nM | inactive | – | – | – | – | – | – | – | – | – | inhibition [2]: Dose-dependent effect; inhibition [3]: Dose-dependent effect; inhibition [4]: Dose-dependent effect; inhibition [5]: Dose-dependent effect; Activity (MCF7 [6]): inactive; Activity (MCF7 [7]): inactive
7 | CC(=O)OC(C)(C)/C=C/C(=O)[C@](C)(O)[C@H]1[C@H](O)C[C@@]2(C)[C@@H]3CC=C4[C@@H](C=C(O)C(=O)C4(C)C)[C@]3(C)C(=O)C[C@]12C [CUCURBITACIN E] | – | – | inactive | inactive | inactive | inactive | inactive | inactive | inactive | – | – | IC50 (MCF7 [1]): 55 nM
8 | CC(C)(O)/C=C/C(=O)[C@](C)(O)[C@H]1[C@H](O)C[C@@]2(C)[C@@H]3CC=C4[C@@H](C=C(O)C(=O)C4(C)C)[C@]3(C)C(=O)C[C@]12C [CUCURBITACIN I] | 60.7 nM | – | inactive | inactive | inactive | inactive | inactive | inactive | inactive | – | – | –
9 | CC(=O)O[C@@H]1C[C@H]2C(C)(C)C(=O)C=C[C@]2(C)[C@H]2CC[C@@]3(C)[C@H](c4ccoc4)OC(=O)[C@H]4O[C@]43[C@@]21C [GEDUNIN] | 10900 nM | inactive | – | – | – | – | – | – | – | Active | Active | inhibition [20]: Active
10 | COC1=C2C[C@@H](C)C[C@H](OC)[C@H](O)[C@@H](C)/C=C(\C)[C@H](OC(N)=O)[C@@H](OC)/C=C\C=C(/C)C(=O)NC(=CC1=O)C2=O [GELDANAMYCIN] | 42.7 nM | – | – | – | – | – | – | – | – | Active | Active | –

Reference: ChEMBL document CHEMBL3576813, “Cucurbitacin D Is a Disruptor of the HSP90 Chaperone Machinery” (J Nat Prod, 2015)
